According to patent US20200085839A1, “COMBINATION OF IMMUNOTHERAPEUTICS AND BISFLUOROALKYL-1,4-BENZODIAZEPINONE COMPOUNDS FOR TREATING LYMPHOMAS” (Ayala Pharmaceuticals Inc., priority 2018, published 2020):
“Also recorded” adds a separate entry of the source. Like-named read-outs stand apart in the source and are kept apart here.

Tests used:
Format in all cases: cell-based, human
[1] = tested on: SP49, Toledo, RC, SUDHL-4 and SUDHL-6 lymphoma cell lines; test: Cell surface BCMA by FACS, five lymphoma cell lines; conditions: SUDHL-4, SUDHL-6, 10 nM or more, 24 h
Experimental: (§1) Cells were seeded at 1×10^4 cells/well in a total volume of 250 μl into a 96-well plate. The cells were cultured in RPMI supplemented with 10% FCS.
(§2) The tested compounds (Compound 1 and Compound 22) were added to the cell cultures at concentrations of: 0, 10, 1, 0.5, 0.1, 0.01, 0.001 μM ([…], 10 nM, 100 nM, 500 nM, 1000 nM, and 10000 nM). Following 24 hours of incubation at 37° C., the cells were collected and stained with anti-BCMA antibody and immediately analyzed by FACS.
The effect of γ-secretase inhibitors on cell surface BCMA levels in lymphoma cell lines was observed using flow cytometry (FACS analysis) (FIG. 4). Cells from five different lymphoma cell lines were treated for 24 hours with different concentrations of Compound 1 (FIG. 4A) or Compound 22 (FIG. 4B). Lymphoma cell lines treated were: SP49 (MCL with Notch4 GOF); Toledo (DLBCL); RC (Double Hit DLBCL—MYC, BCL2); SUDHL-4 (DLBCL); and SUDHL-6 (DLBCL). GSI concentrations were 0, 1 nM, 10 nM, 100 nM, 500 nM, 1000 nM, and 10000 nM.

[2] = tested on: B-ALL cell lines RSV411, REH, 018Z; test: Cell surface BCMA by FACS, B-ALL cell lines; conditions: up to 10 μM, 24 h
Experimental: as §1, §2
The effect of γ-secretase inhibitors on cell surface BCMA levels in Acute B-Cell Lymphoblastic Leukemia (B-ALL) cell lines was also observed using flow cytometry (FIG. 5). Cells from three different B-ALL cell lines were treated for 24 hours with different concentrations (0-10 μM) of GSIs (Compound 1 and Compound 22).

[3] = tested on: U266 cells (MM cell line); test: Soluble BCMA in cell media by ELISA; conditions: for BCMA shedding: MM cells (U266), cell-bound and soluble BCMA
Experimental: FIG. 3. Levels of soluble BCMA In cell media after Incubation of multiple myeloma (MM) cells with γ-secretase inhibitors (GSIs). U266 cells (MM cell line) were incubated with 0.3 nM, 1 nM, 3 nM and 10 nM of GSI (Compound 1, Compound 22, LY3039478 or PF3084014) for 24 hours, and BCMA levels were measured by ELISA.
(§3) For detecting levels of soluble and cell-bound BCMA, U266 cells (MM cell line) were seeded at 1×10^5 cells/well in a total volume of 250 μl into a 96-well plate. The cells were cultured in RPMI medium supplemented with 10% FCS. GSIs (Compound 1, Compound 22, LY3039478 (Lilly), and PF3084014 (Pfizer)) were added to U266 cell cultures at a concentration of 0.3 nM, 0.5 nM, 1 nM and 3 nM for soluble BCMA and at a concentration of […]. Following 24 hours of incubation at 37° C., the cells were collected, and BCMA levels were evaluated in both the cells (cell-bound BCMA) and the cell media (soluble BCMA). Cells were stained with an anti-BCMA antibody (PE anti-human CD269 BCMA, Biolegend). Soluble BCMA levels were analyzed by ELISA (Human BCMA/TNFRSF17 DuoSet kit: R&D Systems).

[4] = tested on: U266 cells (MM cell line); test: Cell-bound BCMA by flow cytometry; conditions: 24 h; for cell-bound BCMA levels: FIG. 1; for effectiveness at increasing cell-bound BCMA compared with other GSIs: all doses above 0.3 nM
Experimental: FIG. 1. Levels of cell-bound BCMA en multiple myelma (MM) cells Incubated with γ-secretase inhibitors (GSIs). U266 cells (MM cell line) were incubated with 0.3 nM, 0.5 nM, 1 nM or 3 nM of GSI (Compound 1, Compound 22, LY3039478 or PF3084014) for 24 hours, and BCMA levels were measured by flow cytometry.
as §3

[5] = tested on: U937 cells (Histiocytic Lymphoma); test: Cell surface BCMA by FACS; conditions: for EC50: Homo sapiens
Experimental: (§4) […] cell lines, comprising 9 subtypes of lymphomas (see Table 1), were seeded at 1×10^5 cells/well in a total volume of 250 μl into a 96-well plate. The cells were cultured in RPMI medium supplemented with 10% FCS. Compound (22) was added to the cell cultures at a concentration of 10 μM, 1 μM, 100 nM, 10 nM, 1 nM, 100 pM, 10 pM, 1 pM, and 100 fM, and cell lines (8 from Hadassah Medical Center, 31 from Eurofins) were incubated at 37° C. for 24 hours with Compound (22). Following incubation, the cells were collected and BCMA levels were evaluated on the cell surface for cell-bound BCMA. Cells were stained with an anti-BCMA antibody (PE anti-human 19F2 BCMA, Biolegend), and cell surface BCMA levels were determined by FACS analysis (Mean Fluorescence Intensity. Soluble BCMA levels were analyzed by ELISA (Human BCMA/TNFRSF17 DuoSet kit: R&D Systems).

[6] = tested on: MC-116 cells (B-cell Lymphoma); test: Cell surface BCMA by FACS; conditions: for EC50: Homo sapiens
Experimental: as §4

[7] = tested on: SUDHL-4 (Eurofins) cells (DLBCL); printed SUDHL in Table 1; test: Cell surface BCMA by FACS; conditions: for EC50: Homo sapiens, SU-DHL-4
Experimental: as §4

[8] = tested on: EB-2 cells (Burkitt's Lymphoma); test: Cell surface BCMA by FACS; conditions: for EC50: Homo sapiens
Experimental: as §4

[9] = tested on: Namalwa cells (Burkitt's Lymphoma); test: Cell surface BCMA by FACS; conditions: for EC50: Homo sapiens
Experimental: as §4

[10] = tested on: SR cells (Anaplastic Large Cell Lymphoma); test: Cell surface BCMA by FACS; conditions: for EC50: Homo sapiens
Experimental: as §4

[11] = 24 h, read-out: BCMA (Mean Fluorescence Intensity) EC50

## CN1C(=O)[C@@H](NC(=O)[C@H](CCC(F)(F)F)[C@H](CCC(F)(F)F)C(N)=O)N=C(c2ccccc2)c2ccccc21 [Compound 1, (2R,3S)—N-((3S)-1-methyl-2-oxo-5-phenyl-2,3-dihydro-1H-1,4-benzodiazepin-3-yl)-2,3-bis(3,3,3-trifluoropropyl)succinamide]
[1]
  cell surface BCMA levels: elevated BCMA levels
[2]
  BCMA expression: did not affect BCMA expression
[3]
  BCMA shedding: inhibit BCMA shedding
[4]
  cell-bound BCMA levels: increased cell-bound BCMA levels
  effectiveness at increasing cell-bound BCMA compared with other GSIs: as effective as LY3039478 and more effective than PF3084014

## Cc1cccc2c1NC(=O)[C@@H](NC(=O)[C@H](CCC(F)(F)F)[C@H](CCC(F)(F)F)C(N)=O)N=C2c1cccc(F)c1 [Compound (22), (2R,3S)—N-((3S)-5-(3-fluorophenyl)-9-methyl-2-oxo-2,3-dihydro-1H-1,4-benzodiazepin-3-yl)-2,3-bis(3,3,3-trifluoropropyl)succinamide]
[1]
  cell surface BCMA levels: elevated BCMA levels
[2]
  BCMA expression: did not affect BCMA expression
[3]
  BCMA shedding: inhibit BCMA shedding
[3]; U266, 24 h
  potency in reducing soluble BCMA in cell media compared with other GSIs: more potent than Compound 1; also recorded: as potent as LY3039478; also recorded: more potent than PF3084014
[5]
  mBCMA (MFI) Fold Increase: 1.0 fold
[5]; 1 nM, 24 h
  BCMA (Mean Fluorescence Intensity) 1 nM Compound (22): 327
[5]; 100 nM, 24 h
  BCMA (Mean Fluorescence Intensity) 100 nM Compound (22): 328
[5]; U-937, 24 h, read-out: BCMA (Mean Fluorescence Intensity) EC50
  EC50: > 10000 nM
[5]; U-937, read-out: mBCMA (MFI) EC50
  EC50: > 10000 nM
[6]
  mBCMA (MFI) Fold Increase: 4.2 fold
[6]; 1 nM, 24 h
  BCMA (Mean Fluorescence Intensity) 1 nM Compound (22): 915
[6]; 100 nM, 24 h
  BCMA (Mean Fluorescence Intensity) 100 nM Compound (22): 1850
[6]; MC116, 24 h, read-out: BCMA (Mean Fluorescence Intensity) EC50
  EC50: 1.9 nM
[6]; MC116, read-out: mBCMA (MFI) EC50
  EC50: 1.9 nM
[7]; SUDHL-4 (Eurofins), read-out: mBCMA (MFI) EC50
  EC50: 1.6 nM
[7]; SUDHL, 24 h, read-out: BCMA (Mean Fluorescence Intensity) EC50
  EC50: 1.6 nM
[7]; SUDHL-4 (Eurofins)
  mBCMA (MFI) Fold Increase: 9.1 fold
[7]; SUDHL, 1 nM, 24 h
  BCMA (Mean Fluorescence Intensity) 1 nM Compound (22): 7568
[7]; SUDHL, 100 nM, 24 h
  BCMA (Mean Fluorescence Intensity) 100 nM Compound (22): 20540
[8]
  mBCMA (MFI) Fold Increase: 5.4 fold
[8]; 1 nM, 24 h
  BCMA (Mean Fluorescence Intensity) 1 nM Compound (22): 18536
[8]; 100 nM, 24 h
  BCMA (Mean Fluorescence Intensity) 100 nM Compound (22): 28188
[8]; EB2, 24 h, read-out: BCMA (Mean Fluorescence Intensity) EC50
  EC50: 0.98 nM
[8]; EB2, read-out: mBCMA (MFI) EC50
  EC50: 0.98 nM
[9]
  mBCMA (MFI) Fold Increase: 2.0 fold
[9]; 1 nM, 24 h
  BCMA (Mean Fluorescence Intensity) 1 nM Compound (22): 1395
[9]; 100 nM, 24 h
  BCMA (Mean Fluorescence Intensity) 100 nM Compound (22): 1690
[9]; [11]
  EC50: 10.7 nM
[9]; read-out: mBCMA (MFI) EC50
  EC50: 10.7 nM
[10]
  mBCMA (MFI) Fold Increase: 1.0 fold
[10]; 1 nM, 24 h
  BCMA (Mean Fluorescence Intensity) 1 nM Compound (22): 289
[10]; 100 nM, 24 h
  BCMA (Mean Fluorescence Intensity) 100 nM Compound (22): 293
[10]; [11]
  EC50: > 10000 nM
[10]; read-out: mBCMA (MFI) EC50
  EC50: > 10000 nM
[4]
  cell-bound BCMA levels: increased cell-bound BCMA levels
  effectiveness at increasing cell-bound BCMA compared with other GSIs: as effective as LY3039478 and more effective than PF3084014
